Laboratory results published in patent EP0402852A1, “Irreversible bombesin antagonists” (priority 1989, dated 1990).
Like-named read-outs stand apart in the source and are kept apart here. Starred links: 1 amine or outer side, 2 acyl side, 3 side chain; linkers in the order of their positions; H or OH if unused. Non-standard residues stand in square brackets, D forms with d. Residues, ends and D or L forms follow the SMILES beside them. *: point of attachment. X2 = CC(C)C[C@@H](CN[C@@H](CC(C)C)C(N)=O)N*; Carbamoyl(2-ClEt,NO) = O=NN(CCCl)C(=O)*; X1 = O=C(c1ccc(N(CCCl)CCCl)cc1)*; pGlu = O=C1CC[C@@H](C(=O)O)N1; Suc = O=C(CCC(=O)[*:2])[*:1]; Nle = CCCC[C@H](N)C(=O)O; CH2Cl = ClC*

What was measured:
[1] = test system: mouse Swiss 3T3 fibroblasts; experiment: Mitogenesis: [H³]thymidine incorporation in quiescent, confluent Swiss 3T3 cells; assay type: cell-based; conditions: for FOLD INCREASE OVER BASAL VALUE: [H³]thymidine incorporation, compound alone
Description: The effect on mitogenesis was determined in quiescent and confluent Swiss 3T3 cells maintained in serum free medium (A.N.Corps et al (1985) Biochem J. 231, 781-785). In a first set of experiments, analogues are given alone or in combination with bombesin. In a second set of experiments, cells are pre-treated with the alkylating peptides, washed, left at 37°C for 24 hours and then challenged with bombesin. In both cases, DNA synthesis was evaluated as [H³]thymidine incorporation (Table 2).

[2] = test system: p115 protein associated with the bombesin receptor; experiment: Phosphorylation of the p115 protein (activation of protein-tyrosin kinase); assay type: cell-based
Description: Mitogenic effect of bombesin and its analogues were also evaluated as activation of the protein-tyrosin kinase that phosphorylates a 115 KD protein (p115) associated with the bombesin receptor complex (D. Cirillo et al. (1986) Mol.Cell. Biol. 6, 4641- 4649) (Table 3). In addition, exposure to these peptides in the 0.1-50 µM range was associated with significant reduction in the growth of SCLC cell lines (such as NCI-H345, NCI-N592, NCI-H128), as well as of prostatic carcinoma cell lines (such as DU145 and PC3).

bombesin receptors = molecular target: T1, bombesin receptors (Mus musculus, UniProt P21729); experiment: Binding affinity for the bombesin receptors on mouse Swiss 3T3 fibroblasts
T1 construct: bombesin receptors was determined on mouse Swiss 3T3 fibroblasts; endogenous in cells; host or cells: mouse Swiss 3T3 fibroblasts
T1 sequence (P21729 whole entry): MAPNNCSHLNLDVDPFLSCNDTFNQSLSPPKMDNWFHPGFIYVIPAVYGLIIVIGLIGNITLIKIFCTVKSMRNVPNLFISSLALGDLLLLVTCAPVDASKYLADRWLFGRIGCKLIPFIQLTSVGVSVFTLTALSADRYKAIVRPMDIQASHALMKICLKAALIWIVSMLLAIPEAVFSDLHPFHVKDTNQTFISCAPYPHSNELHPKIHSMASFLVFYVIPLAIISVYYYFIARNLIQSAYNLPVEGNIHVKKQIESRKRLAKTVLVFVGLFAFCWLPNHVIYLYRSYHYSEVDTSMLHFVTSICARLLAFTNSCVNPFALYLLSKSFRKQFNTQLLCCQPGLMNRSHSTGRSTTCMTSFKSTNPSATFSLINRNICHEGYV
Description: The binding affinity of the compounds of the present invention for the bombesin receptors was determined on mouse Swiss 3T3 fibroblasts (I. Zachary and E. Rozengurt (1985) Proc. Natl. Acad. Sci. USA, 82, 7616-7620) (Table 1).

[3] = binding affinity on mouse Swiss 3T3 fibroblasts
[4] = binding affinity on mouse Swiss 3T3 fibroblasts, read-out: ID₅₀

For “4-(ClCH₂CH₂)₂NC₆H₄CO-Thr-Gln-Trp-Ala-Val-Gly-His(Dnp)-Leu-Met-NH₂ (TQWAVGH; N-mustard benzoyl; His(Dnp)-Leu-Met-NH2; printed: Thr-Gln-Trp-Ala-Val-Gly-His) [III]”, the “% INHIBITION IN THE PRESENCE OF 25nM BBS” value ([1]; A: analogues given in combination with BBS, 0.5µM) was 0%, the “% INHIBITION IN THE PRESENCE OF 25nM BBS” value ([1]; A: analogues given in combination with BBS, 5 µM) was 0% and the “% INHIBITION IN THE PRESENCE OF 25nM BBS” value ([1]; B: cells pre-treated with analogues, washed, left at 37°C for 24 h, then challenged with BBS, 0.5µM) was 51±11%. The “% INHIBITION IN THE PRESENCE OF 25nM BBS” value ([1]; B: cells pre-treated with analogues, washed, left at 37°C for 24 h, then challenged with BBS, 5 µM) was 53+8%, the “FOLD INCREASE OVER BASAL VALUE” ([1]; 0.5µM) was 2.3 and the “FOLD INCREASE OVER BASAL VALUE” ([1]; 5 µM) was 3.4. The “MINIMAL ACTIVE DOSE” value [2] was 500 nM and the ID₅₀ (bombesin receptors; [3]) was 1815 ± 330 nM.

Compound `CSCC[C@H](NC(=O)[C@H](CC(C)C)NC(=O)CNC(=O)[C@@H](NC(=O)[C@H](C)NC(=O)[C@H](Cc1c[nH]c2ccccc12)NC(=O)[C@H](CCC(N)=O)NC(=O)[C@@H](NC(=O)c1ccc(N(CCCl)CCCl)cc1)[C@@H](C)O)C(C)C)C(N)=O` [I, 4-(ClCH₂CH₂)₂NC₆H₄CO-Thr-Gln-Trp-Ala-Val-Gly-Leu-Met-NH₂] (X1-TQWAVGLM-NH2) has an IC50 (bombesin receptors) of 1360 ± 266 nM.

`CCCC[C@H](NC(=O)[C@H](CC(C)C)NC(=O)CNC(=O)[C@@H](NC(=O)[C@H](C)NC(=O)[C@H](Cc1c[nH]c2ccccc12)NC(=O)[C@H](CCC(N)=O)NC(=O)[C@@H](NC(=O)c1ccc(N(CCCl)CCCl)cc1)[C@@H](C)O)C(C)C)C(N)=O` [II, 4-(ClC₂CH₂)₂NC₆H₄CO-Thr-Gln-Trp-Ala-Val-Gly-Leu-Nle-NH₂] (X1-TQWAVGL[Nle]-NH2) was tested, and the IC50 (bombesin receptors) was 438 ± 111 nM.

For `CSCC[C@H](NC(=O)[C@H](CC(C)C)NC(=O)[C@H](Cc1c[nH]cn1)NC(=O)CNC(=O)[C@@H](NC(=O)[C@H](C)NC(=O)[C@H](Cc1c[nH]c2ccccc12)NC(=O)[C@H](CCC(N)=O)NC(=O)[C@@H](NC(=O)c1ccc(N(CCCl)CCCl)cc1)[C@@H](C)O)C(C)C)C(N)=O` [IV, 4-(ClCH₂CH₂)₂NC₆H₄CO-Thr-Gln-Trp-Ala-Val-Gly-His-Leu-Met-NH₂], the IC50 (bombesin receptors) was 0.7 ± 0.2 nM.

For `CCCC[C@H](NC(=O)[C@H](CC(C)C)NC(=O)CNC(=O)[C@@H](NC(=O)[C@H](C)NC(=O)[C@H](Cc1c[nH]c2ccccc12)NC(=O)[C@H](CCC(N)=O)NC(=O)[C@@H](NC(=O)N(CCCl)N=O)[C@@H](C)O)C(C)C)C(N)=O` [V, ClCH₂CH₂N(NO)CO-Thr-Gln-Trp-Ala-Val-Gly-Leu-Nle-NH₂] ({Carbamoyl(2-ClEt,NO)}-TQWAVGL[Nle]-NH2), the IC50 (bombesin receptors) was 1340 ± 199 nM.

Work on `CCCC[C@H](NC(=O)CCC(=O)N[C@H](C(=O)N[C@@H](CCC(N)=O)C(=O)N[C@@H](Cc1c[nH]c2ccccc12)C(=O)N[C@@H](C)C(=O)N[C@H](C(=O)NCC(=O)N[C@@H](CC(C)C)C(=O)N[C@@H](CCSC)C(N)=O)C(C)C)[C@@H](C)O)C(=O)CCl` [VI, CH₃(CH₂)₃CH(COCH₂Cl)NHCO(CH₂)₂CO-Thr-Gln-Trp-Ala-Val-Gly-Leu-Met-NH₂] ({CH2Cl-Nle-Suc}-TQWAVGLM-NH2) yielded an IC50 (bombesin receptors; [4]) of 648 ± 290 nM.

For `CC(C)C[C@@H](CN[C@@H](CC(C)C)C(N)=O)NC(=O)[C@H](Cc1cnc[nH]1)NC(=O)CNC(=O)[C@@H](NC(=O)[C@H](C)NC(=O)[C@H](Cc1c[nH]c2ccccc12)NC(=O)[C@H](CCC(N)=O)NC(=O)[C@H](CC(N)=O)NC(=O)CNC(=O)[C@H](CC(C)C)NC(=O)[C@H](CCCN=C(N)N)NC(=O)[C@H](CCC(N)=O)NC(=O)[C@@H]1CCC(=O)N1)C(C)C` [[Leu¹³Ψ(CH₂-NH)Leu¹⁴]BBS, reference compound] ([pGlu]QRLGNQWAVGH-X2), the IC50 (bombesin receptors) was 214 ± 30 nM.

“Glp-Gln-Arg-Leu-Gly-Asn-Gln-Trp-Ala-Val-Gly-His-Leu-Met-NH₂ [BBS, reference compound]” was tested, and the “FOLD INCREASE OVER BASAL VALUE” ([1]; 5nM) was 3.0±1, the “MINIMAL ACTIVE DOSE” value [2] was 3 nM and the ID₅₀ (bombesin receptors; [3]) was 12.6 ± 3.8 nM.

Spantide [reference compound] was tested, and the “MINIMAL ACTIVE DOSE” value [2] was over 10000 nM and the IC50 (bombesin receptors; [4]) was 11100 nM.
